Source: paper PMC3522743, “Wax Ester Synthesis is Required for Mycobacterium tuberculosis to Enter In Vitro Dormancy” (PLoS ONE, 2012)

Legend:
[1] = molecular target: T1, FCR1 (Rv3391) (Mycobacterium tuberculosis, UniProt O50417)
T1 construct: gene acrA1

[2] = molecular target: FCR2 (Rv1543) (Mycobacterium tuberculosis, UniProt P9WGS1)
Chain of FCR2 (Rv1543) (P9WGS1 whole entry): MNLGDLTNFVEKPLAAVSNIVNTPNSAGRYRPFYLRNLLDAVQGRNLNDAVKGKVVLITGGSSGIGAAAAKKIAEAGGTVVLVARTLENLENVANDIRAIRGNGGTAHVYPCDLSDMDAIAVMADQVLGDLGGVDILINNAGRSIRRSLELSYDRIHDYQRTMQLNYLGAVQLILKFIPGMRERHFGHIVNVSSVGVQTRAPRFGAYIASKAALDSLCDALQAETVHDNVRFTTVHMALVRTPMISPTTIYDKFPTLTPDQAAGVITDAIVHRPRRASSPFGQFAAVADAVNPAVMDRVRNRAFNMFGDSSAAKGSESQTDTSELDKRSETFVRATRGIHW

T1 sequence (O50417 entry or part of it): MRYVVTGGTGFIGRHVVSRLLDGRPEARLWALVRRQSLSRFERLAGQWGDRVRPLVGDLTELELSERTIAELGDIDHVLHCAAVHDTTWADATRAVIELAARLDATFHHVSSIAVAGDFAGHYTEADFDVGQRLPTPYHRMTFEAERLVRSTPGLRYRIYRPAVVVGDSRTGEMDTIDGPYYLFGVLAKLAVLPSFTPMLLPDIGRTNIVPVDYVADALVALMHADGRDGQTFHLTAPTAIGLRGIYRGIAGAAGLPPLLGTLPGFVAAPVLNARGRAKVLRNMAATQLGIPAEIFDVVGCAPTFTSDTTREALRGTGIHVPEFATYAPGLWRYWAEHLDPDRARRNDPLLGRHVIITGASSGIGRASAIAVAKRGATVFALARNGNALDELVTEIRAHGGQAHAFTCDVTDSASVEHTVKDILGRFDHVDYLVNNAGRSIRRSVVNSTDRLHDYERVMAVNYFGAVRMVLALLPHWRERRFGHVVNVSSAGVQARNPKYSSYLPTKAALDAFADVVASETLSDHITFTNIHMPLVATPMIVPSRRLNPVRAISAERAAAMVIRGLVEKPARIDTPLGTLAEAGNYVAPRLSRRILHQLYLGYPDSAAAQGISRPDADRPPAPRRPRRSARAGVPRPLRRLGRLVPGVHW

Compound | 14C product formation, TLC and scintillation counting, E. coli lysate [1] | 14C product formation, TLC and scintillation counting, E. coli lysate [2]
CCCCCCCC/C=C\CCCCCCCC(=O)SCCNC(=O)CCNC(=O)[C@H](O)C(C)(C)COP(=O)(O)OP(=O)(O)OC[C@H]1O[C@@H](n2cnc3c(N)ncnc32)[C@H](O)[C@@H]1OP(=O)(O)O [oleoyl-CoA] | Both of these proteins showed typical substrate saturation with oleoyl-CoA (Fig. 3C, G). | Both of these proteins showed typical substrate saturation with oleoyl-CoA (Fig. 3C, G).
NC(=O)C1=CN([C@@H]2O[C@H](COP(=O)(O)OP(=O)(O)OC[C@H]3O[C@@H](n4cnc5c(N)ncnc54)[C@H](OP(=O)(O)O)[C@@H]3O)[C@@H](O)[C@H]2O)C=CC1 [NADPH] | Both FCR1 and FCR2 exhibited strong preference for NADPH as a cofactor | Both FCR1 and FCR2 exhibited strong preference for NADPH as a cofactor
